Patent US5523299A, “5-(2-oxyphenyl)-pyrrole derivatives as dopamine D3 receptor antagonists” (SmithKline Beecham PLC, priority 1992, dated 1996)
Structures can show the parent of a compound that is named as a salt.

Molecular target: human D3 dopamine receptors (Homo sapiens, UniProt P35462)
Experiment: [125I] iodosulpride displacement binding to cloned dopamine receptors expressed in CHO cells
Conditions: displacement of 0.1 nM [125I] iodosulpride, cloned receptor in CHO cell membranes, 30 min at 37° C.
Experimental: The inhibition constants (Ki) of test compounds for displacement of [^125 I] iodosulpride binding to human D2 and D3 dopamine receptors expressed in CHO cells have been determined. […] Cultures were grown as monolayers or in suspension in standard cell culture media. Cells were recovered by scraping (from monolayers) or by centrifugation (from suspension cultures), and were washed two or three times by suspension in phosphate buffered saline followed by collection by centrifugation. Cell pellets were stored frozen at -40° C. Crude cell membranes were prepared by homogenisation followed by high-speed centrifugation, and characterisation of cloned receptors achieved by radioligand binding.
Cell pellets were gently thawed at room temperature, and resuspended in about 20 volumes of ice-cold 50 mM Tris salts (pH 7.4 @37° C.), 20 mM EDTA, 0.2M sucrose. The suspension was homogenised using an Ultra-Turrax at full speed for 15 sec. The homogenate was centrifuged at 18,000 r.p.m for 20 min at 4° C. in a Sorvall RC5C centrifuge. The membrane pellet was resuspended in ice-cold 50 mM Tris salts (pH 7.4 @37° C.), using an Ultra-Turrax, and recentrifuged at 18,000 r.p.m for 15 min at 4° C. in a Sorvall RC5C. The membranes were washed two more times with ice-cold 50 mM Tris salts (pH 7.4 @37° C.). The final pellet was resuspended in 50 mM Tris salts (pH 7.4 @37° C.), and the protein content determined using bovine serum albumin as a standard (Bradford, M. M. (1976) Anal. Biochem. 72, 248-254).
Crude cell membranes were incubated with 0.1 nM [^125 I] iodosulpride (~2000 Ci/mmol; Amersham, U.K.), and the test compound in a buffer containing 50 mM Tris salts (pH 7.4 @37° C.), 120 mM NaCl, 5 mM KCl, 2 mM CaCl2, 1 mM MgCl2, 0.1% (w/v) bovine serum albumin, in a total volume of 1 ml for 30 min at 37° C. Following incubation, samples were filtered using a Brandel Cell Harvester, and washed three times with ice-cold 50 mM Tris salts (pH 7.4 @37° C.), 120 mM NaCl5 mM KCl2 mM CaCl2, 1 mM MgCl2. The radioactivity on the filters was measured using a Cobra gamma counter (Canberra Packard). Non-specific binding was defined as the radioligand binding remaining after incubation in the presence of 100 μM iodosulpride. For competition curves, 14 concentrations (half-log dilutions) of competing cold drug were used.
Competition curves were analysed simultaneously whenever possible using non-linear least-squares fitting procedures, capable of fitting one, two or three site models.

human D3 dopamine receptors, sequence (P35462 whole entry): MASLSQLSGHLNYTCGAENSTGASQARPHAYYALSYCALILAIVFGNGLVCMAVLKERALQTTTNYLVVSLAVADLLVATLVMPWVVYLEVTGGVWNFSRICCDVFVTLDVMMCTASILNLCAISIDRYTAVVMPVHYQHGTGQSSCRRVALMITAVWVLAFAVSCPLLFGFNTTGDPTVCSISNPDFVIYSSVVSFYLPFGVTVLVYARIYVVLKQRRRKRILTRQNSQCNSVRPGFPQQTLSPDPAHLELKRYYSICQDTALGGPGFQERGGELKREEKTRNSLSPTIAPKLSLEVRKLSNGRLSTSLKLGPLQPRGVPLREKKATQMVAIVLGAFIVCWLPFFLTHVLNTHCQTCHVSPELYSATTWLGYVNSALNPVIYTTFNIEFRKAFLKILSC

Compound	IC50
COc1c(Br)cc(Br)cc1-c1ccc(CN2CCCCC2)[nH]1 [Example 1, 2-(3,5-Dibromo-2-methoxyphenyl)-5-(1-piperidinylmethyl)-1H-pyrrole hydrochloride]	0.2 to 26 nM
CCS(=O)(=O)c1ccc(OC)c(-c2ccc(CN3CCCCC3)[nH]2)c1 [Example 2, 2-(5-Ethylsulphonyl-2-methoxyphenyl)-5-(1-piperidinylmethyl)-1H-pyrrole]	0.2 to 26 nM
CCS(=O)(=O)c1ccc(OC)c(-c2ccc(C(C)N3CCCCC3)[nH]2)c1 (stereo not shown) [Example 16, 2-(5-Ethylsulphonyl-2-methoxyphenyl)-5-[1-(1-piperidinyl)-ethyl)-1H-pyrrolehydrochloride]	0.2 to 26 nM
COc1cc(Br)cc(-c2ccc(C(C)N3CCCCC3)[nH]2)c1OC (stereo not shown) [Example 36, 2-(2,3-Dimethoxy-5-bromophenyl)-5-[1-(1-piperidinyl)ethyl]-1H-pyrrole hydrochloride]	0.2 to 26 nM

Further lines, results first:

IC50	Compound
0.2 to 26 nM	CCS(=O)(=O)c1ccc(OC)c(-c2ccc(C(C)N3CCCCC3)[nH]2)c1 (single isomer, unassigned; slower eluting) [Example 49, 2-(5-Ethylsulphonyl-2-methoxyphenyl)-5-[1-(1-piperidinyl)-ethyl)-1H-pyrrole, slower eluting enantiomer]
0.2 to 26 nM	CCN(Cc1ccccc1)Cc1ccc(-c2cc(S(=O)(=O)CC)ccc2OC)[nH]1 [Example 27, 2-(5-Ethylsulphonyl-2-methoxyphenyl)-5-(N-benzyl-N-ethyl)-aminomethyl-1H-pyrrole hydrochloride]
0.2 to 26 nM	CCN(Cc1ccccc1)Cc1ccc(-c2cc(S(=O)(=O)CC)cc(Br)c2OC)[nH]1 [Example 30, 2-(3-Bromo-5-ethylsulphonyl-2-methoxyphenyl)-5-(N-benzyl-N-ethyl)aminomethyl-1H-pyrrole hydrochloride]
